# Measurements as given in ChEMBL document CHEMBL1139649, “Hetaryl imidazoles: a novel dual inhibitors of VEGF receptors I and II” (Bioorg Med Chem Lett, 2006).
# Target: cAMP-dependent protein kinase (PKA) (Homo sapiens) (UniProt P22694+P17612+P22612)
# Experiment: Inhibition against PKA at 10 uM by HTRF method
# Type: protein assay
# Parameters: scale not given: the % may be the effect or the level left
row,Activity,SMILES
1,< 30%,Cn1cnc(NCc2ccncc2)c1-c1nnc(Nc2ccc(Br)cc2)o1
2,< 30%,Cn1cnc(NCc2ccncc2)c1-c1nnc(Nc2ccc(Oc3ccccc3)cc2)o1
3,< 30%,COc1ccccc1Nc1nnc(-c2c(NCc3ccncc3)ncn2C)o1
4,< 30%,Cc1cccc(Nc2nnc(-c3c(NCc4ccncc4)ncn3C)o2)c1

# Target: Insulin-like growth factor 1 receptor (Homo sapiens) (UniProt P08069)
# Experiment: […] against IGF1R at 10 uM by HTRF method
# Insulin-like growth factor 1 receptor (Homo sapiens), sequence (P08069 31-736 limits assumed): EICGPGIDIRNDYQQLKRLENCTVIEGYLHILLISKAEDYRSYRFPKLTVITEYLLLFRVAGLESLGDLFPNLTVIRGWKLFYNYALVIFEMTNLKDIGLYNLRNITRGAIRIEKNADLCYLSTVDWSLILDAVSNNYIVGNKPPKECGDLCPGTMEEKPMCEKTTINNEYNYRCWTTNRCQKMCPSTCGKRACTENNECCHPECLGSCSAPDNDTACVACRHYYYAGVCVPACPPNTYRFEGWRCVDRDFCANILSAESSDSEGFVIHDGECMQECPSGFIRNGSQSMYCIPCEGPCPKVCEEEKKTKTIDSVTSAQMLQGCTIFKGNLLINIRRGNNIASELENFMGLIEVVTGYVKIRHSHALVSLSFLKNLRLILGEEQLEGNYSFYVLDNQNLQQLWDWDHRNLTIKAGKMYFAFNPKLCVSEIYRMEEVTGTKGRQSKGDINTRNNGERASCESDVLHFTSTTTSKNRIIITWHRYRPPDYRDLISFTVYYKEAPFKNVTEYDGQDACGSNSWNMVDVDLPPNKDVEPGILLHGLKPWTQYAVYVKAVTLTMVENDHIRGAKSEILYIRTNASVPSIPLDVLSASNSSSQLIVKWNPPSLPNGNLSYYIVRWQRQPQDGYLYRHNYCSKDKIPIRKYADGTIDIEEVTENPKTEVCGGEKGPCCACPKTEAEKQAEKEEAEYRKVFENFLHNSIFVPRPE
# Insulin-like growth factor 1 receptor (Homo sapiens), sequence (P08069 741-1367 limits assumed): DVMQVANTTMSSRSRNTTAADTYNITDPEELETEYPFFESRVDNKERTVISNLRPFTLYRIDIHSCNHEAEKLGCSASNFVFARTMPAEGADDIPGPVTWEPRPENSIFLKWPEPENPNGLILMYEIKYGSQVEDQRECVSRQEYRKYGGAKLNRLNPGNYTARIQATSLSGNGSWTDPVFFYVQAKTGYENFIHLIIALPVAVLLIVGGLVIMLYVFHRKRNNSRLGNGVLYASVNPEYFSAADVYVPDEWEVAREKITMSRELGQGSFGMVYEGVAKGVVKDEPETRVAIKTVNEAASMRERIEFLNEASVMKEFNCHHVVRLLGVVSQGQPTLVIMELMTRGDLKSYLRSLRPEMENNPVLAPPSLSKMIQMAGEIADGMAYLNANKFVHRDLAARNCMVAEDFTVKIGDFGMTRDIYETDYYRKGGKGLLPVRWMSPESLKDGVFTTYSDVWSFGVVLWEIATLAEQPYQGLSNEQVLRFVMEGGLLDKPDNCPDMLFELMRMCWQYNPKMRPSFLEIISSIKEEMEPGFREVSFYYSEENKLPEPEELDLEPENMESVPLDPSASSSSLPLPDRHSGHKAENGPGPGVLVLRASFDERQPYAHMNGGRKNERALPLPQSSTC
row,Activity,SMILES
1,< 30%,Cn1cnc(NCc2ccncc2)c1-c1nnc(Nc2ccc(Br)cc2)o1
2,< 30%,Cn1cnc(NCc2ccncc2)c1-c1nnc(Nc2ccc(Oc3ccccc3)cc2)o1
3,< 30%,COc1ccccc1Nc1nnc(-c2c(NCc3ccncc3)ncn2C)o1
4,< 30%,Cc1cccc(Nc2nnc(-c3c(NCc4ccncc4)ncn3C)o2)c1

# Target: Bcr/Abl fusion protein (Homo sapiens) (UniProt P00519+P11274)
# Experiment: Inhibition of bcr-Abl at 10 uM by HTRF method
# Type: protein assay
# Parameters: scale not given: the % may be the effect or the level left
row,Activity,SMILES
1,< 30%,Cn1cnc(NCc2ccncc2)c1-c1nnc(Nc2ccc(Br)cc2)o1
2,< 30%,Cn1cnc(NCc2ccncc2)c1-c1nnc(Nc2ccc(Oc3ccccc3)cc2)o1
3,< 30%,COc1ccccc1Nc1nnc(-c2c(NCc3ccncc3)ncn2C)o1
4,< 30%,Cc1cccc(Nc2nnc(-c3c(NCc4ccncc4)ncn3C)o2)c1

# Target: Cyclin-dependent kinase 2 (Homo sapiens) (UniProt P24941)
# Experiment: […] against Cdk2 at 10 uM by HTRF method
row,Percent inhibition,SMILES
1,< 30%,Cn1cnc(NCc2ccncc2)c1-c1nnc(Nc2ccc(Br)cc2)o1
2,< 30%,Cn1cnc(NCc2ccncc2)c1-c1nnc(Nc2ccc(Oc3ccccc3)cc2)o1
3,< 30%,COc1ccccc1Nc1nnc(-c2c(NCc3ccncc3)ncn2C)o1
4,< 30%,Cc1cccc(Nc2nnc(-c3c(NCc4ccncc4)ncn3C)o2)c1

# Target: RAC-alpha serine/threonine-protein kinase (Homo sapiens) (UniProt P31749)
# Experiment: […] against PKB/Akt at 10 uM by HTRF method
row,Activity,SMILES
1,< 30%,Cn1cnc(NCc2ccncc2)c1-c1nnc(Nc2ccc(Br)cc2)o1
2,< 30%,Cn1cnc(NCc2ccncc2)c1-c1nnc(Nc2ccc(Oc3ccccc3)cc2)o1
3,< 30%,COc1ccccc1Nc1nnc(-c2c(NCc3ccncc3)ncn2C)o1
4,< 30%,Cc1cccc(Nc2nnc(-c3c(NCc4ccncc4)ncn3C)o2)c1

# Target: Glycogen synthase kinase-3 beta (Homo sapiens) (UniProt P49841)
# Experiment: Inhibition against GSK3-beta at 10 uM by HTRF method
# Parameters: scale not given: the % may be the effect or the level left
# Glycogen synthase kinase-3 beta (Homo sapiens), sequence (P49841 whole entry, looked up): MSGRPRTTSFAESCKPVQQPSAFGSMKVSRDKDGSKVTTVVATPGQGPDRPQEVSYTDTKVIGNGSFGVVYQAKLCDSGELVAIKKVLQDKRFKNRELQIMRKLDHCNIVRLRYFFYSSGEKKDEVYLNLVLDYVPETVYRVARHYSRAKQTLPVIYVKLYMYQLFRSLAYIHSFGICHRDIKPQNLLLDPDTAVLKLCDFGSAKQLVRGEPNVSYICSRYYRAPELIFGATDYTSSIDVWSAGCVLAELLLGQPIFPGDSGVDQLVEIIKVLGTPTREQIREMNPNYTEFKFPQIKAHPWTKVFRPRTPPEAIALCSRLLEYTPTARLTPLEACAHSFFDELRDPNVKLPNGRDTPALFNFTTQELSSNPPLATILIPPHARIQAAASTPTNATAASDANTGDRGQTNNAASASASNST
row,Activity,SMILES
1,< 30%,Cn1cnc(NCc2ccncc2)c1-c1nnc(Nc2ccc(Br)cc2)o1
2,< 30%,Cn1cnc(NCc2ccncc2)c1-c1nnc(Nc2ccc(Oc3ccccc3)cc2)o1
3,< 30%,COc1ccccc1Nc1nnc(-c2c(NCc3ccncc3)ncn2C)o1
4,< 30%,Cc1cccc(Nc2nnc(-c3c(NCc4ccncc4)ncn3C)o2)c1

# Target: Fibroblast growth factor receptor 1 (Homo sapiens) (UniProt P11362)
# Experiment: Percent inhibition against FGFR1 at 10 uM by HTRF method
# Parameters: scale not given: the % may be the effect or the level left
row,Activity,SMILES
1,< 30%,Cn1cnc(NCc2ccncc2)c1-c1nnc(Nc2ccc(Br)cc2)o1
2,< 30%,Cn1cnc(NCc2ccncc2)c1-c1nnc(Nc2ccc(Oc3ccccc3)cc2)o1
3,< 30%,COc1ccccc1Nc1nnc(-c2c(NCc3ccncc3)ncn2C)o1
4,< 30%,Cc1cccc(Nc2nnc(-c3c(NCc4ccncc4)ncn3C)o2)c1

# Target: Receptor-type tyrosine-protein kinase FLT3 (Homo sapiens) (UniProt P36888)
# Experiment: Inhibition of Flt3 at 10 uM by HTRF method
# Parameters: scale not given: the % may be the effect or the level left
row,Activity,SMILES
1,< 30%,Cn1cnc(NCc2ccncc2)c1-c1nnc(Nc2ccc(Br)cc2)o1
2,< 30%,Cn1cnc(NCc2ccncc2)c1-c1nnc(Nc2ccc(Oc3ccccc3)cc2)o1
3,< 30%,COc1ccccc1Nc1nnc(-c2c(NCc3ccncc3)ncn2C)o1
4,< 30%,Cc1cccc(Nc2nnc(-c3c(NCc4ccncc4)ncn3C)o2)c1

# Target: Epidermal growth factor receptor (Homo sapiens) (UniProt P00533)
# Experiment: […] against ErbB1 at 10 uM by HTRF method
# Epidermal growth factor receptor (Homo sapiens), sequence (P00533 whole entry): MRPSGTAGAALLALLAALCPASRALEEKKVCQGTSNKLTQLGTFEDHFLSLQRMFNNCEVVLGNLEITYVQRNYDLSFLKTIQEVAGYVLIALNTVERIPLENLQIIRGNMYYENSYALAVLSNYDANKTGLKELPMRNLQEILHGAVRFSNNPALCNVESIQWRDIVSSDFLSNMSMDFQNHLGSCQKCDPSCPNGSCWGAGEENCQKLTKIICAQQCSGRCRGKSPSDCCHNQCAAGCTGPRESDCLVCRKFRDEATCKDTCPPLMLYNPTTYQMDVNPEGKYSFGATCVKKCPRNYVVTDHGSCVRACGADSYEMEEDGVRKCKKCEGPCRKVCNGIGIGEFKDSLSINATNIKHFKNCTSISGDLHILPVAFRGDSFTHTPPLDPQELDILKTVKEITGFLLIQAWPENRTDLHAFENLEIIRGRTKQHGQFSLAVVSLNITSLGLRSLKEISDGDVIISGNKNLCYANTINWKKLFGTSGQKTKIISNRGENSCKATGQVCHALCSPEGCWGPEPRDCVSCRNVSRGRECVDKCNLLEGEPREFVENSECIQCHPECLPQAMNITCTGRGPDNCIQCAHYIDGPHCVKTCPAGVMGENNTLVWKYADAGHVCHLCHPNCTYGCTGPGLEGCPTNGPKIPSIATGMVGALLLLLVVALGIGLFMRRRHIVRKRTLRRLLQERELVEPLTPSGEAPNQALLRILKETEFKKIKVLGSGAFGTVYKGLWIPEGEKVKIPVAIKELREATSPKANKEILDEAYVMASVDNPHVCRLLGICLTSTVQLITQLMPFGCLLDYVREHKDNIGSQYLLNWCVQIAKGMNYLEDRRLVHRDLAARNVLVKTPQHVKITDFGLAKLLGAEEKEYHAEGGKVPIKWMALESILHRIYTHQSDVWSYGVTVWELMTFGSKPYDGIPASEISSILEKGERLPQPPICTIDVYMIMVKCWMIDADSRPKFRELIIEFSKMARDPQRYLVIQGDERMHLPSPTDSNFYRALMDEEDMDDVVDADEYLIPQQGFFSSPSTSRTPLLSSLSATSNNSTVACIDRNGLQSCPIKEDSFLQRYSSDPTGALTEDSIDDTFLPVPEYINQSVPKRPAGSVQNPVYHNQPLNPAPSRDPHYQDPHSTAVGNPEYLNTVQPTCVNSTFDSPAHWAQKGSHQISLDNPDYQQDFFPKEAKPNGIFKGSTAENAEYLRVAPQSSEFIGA
row,Percent inhibition,SMILES
1,< 30%,Cn1cnc(NCc2ccncc2)c1-c1nnc(Nc2ccc(Br)cc2)o1
2,< 30%,Cn1cnc(NCc2ccncc2)c1-c1nnc(Nc2ccc(Oc3ccccc3)cc2)o1
3,< 30%,COc1ccccc1Nc1nnc(-c2c(NCc3ccncc3)ncn2C)o1
4,< 30%,Cc1cccc(Nc2nnc(-c3c(NCc4ccncc4)ncn3C)o2)c1

# Target: T1, Ephrin type-B receptor 4 (Homo sapiens) (UniProt P54760)
# T1 sequence (whole entry): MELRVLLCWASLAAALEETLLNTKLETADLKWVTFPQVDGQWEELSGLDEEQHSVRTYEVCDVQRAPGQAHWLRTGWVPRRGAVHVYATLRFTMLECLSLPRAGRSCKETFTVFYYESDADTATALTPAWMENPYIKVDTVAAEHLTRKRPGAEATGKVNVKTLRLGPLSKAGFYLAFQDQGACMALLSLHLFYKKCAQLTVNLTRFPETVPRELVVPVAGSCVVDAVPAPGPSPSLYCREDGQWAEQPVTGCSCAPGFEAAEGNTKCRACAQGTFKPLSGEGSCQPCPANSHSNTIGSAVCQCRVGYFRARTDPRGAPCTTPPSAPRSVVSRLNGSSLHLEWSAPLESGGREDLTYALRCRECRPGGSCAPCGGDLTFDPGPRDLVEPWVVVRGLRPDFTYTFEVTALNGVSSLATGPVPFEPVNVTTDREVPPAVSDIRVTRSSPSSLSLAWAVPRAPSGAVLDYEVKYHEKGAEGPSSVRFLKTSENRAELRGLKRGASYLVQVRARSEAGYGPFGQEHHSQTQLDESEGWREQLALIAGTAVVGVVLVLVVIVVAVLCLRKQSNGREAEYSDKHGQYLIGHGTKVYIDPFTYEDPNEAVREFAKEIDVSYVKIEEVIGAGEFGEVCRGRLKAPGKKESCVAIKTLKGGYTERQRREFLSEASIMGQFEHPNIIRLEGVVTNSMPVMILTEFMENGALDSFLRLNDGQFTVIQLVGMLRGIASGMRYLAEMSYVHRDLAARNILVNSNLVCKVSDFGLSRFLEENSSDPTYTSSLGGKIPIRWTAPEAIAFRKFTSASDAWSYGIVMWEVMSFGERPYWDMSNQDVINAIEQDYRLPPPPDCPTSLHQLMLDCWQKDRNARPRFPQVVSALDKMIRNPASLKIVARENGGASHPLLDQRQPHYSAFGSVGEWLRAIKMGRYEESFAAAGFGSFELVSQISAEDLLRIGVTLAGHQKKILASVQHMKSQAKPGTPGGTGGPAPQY
# Experiment: Percent inhibition against EphB4 at 10 uM by HTRF method
# Parameters: scale not given: the % may be the effect or the level left
row,Activity,SMILES
1,< 30%,Cn1cnc(NCc2ccncc2)c1-c1nnc(Nc2ccc(Br)cc2)o1
2,< 30%,Cn1cnc(NCc2ccncc2)c1-c1nnc(Nc2ccc(Oc3ccccc3)cc2)o1
3,< 30%,COc1ccccc1Nc1nnc(-c2c(NCc3ccncc3)ncn2C)o1
4,< 30%,Cc1cccc(Nc2nnc(-c3c(NCc4ccncc4)ncn3C)o2)c1

# Target: Cyclin-dependent kinase 5 (Homo sapiens) (UniProt Q00535)
# Experiment: […] against Cdk5 at 10 uM by HTRF method
# Cyclin-dependent kinase 5 (Homo sapiens), sequence (Q00535 whole entry, looked up): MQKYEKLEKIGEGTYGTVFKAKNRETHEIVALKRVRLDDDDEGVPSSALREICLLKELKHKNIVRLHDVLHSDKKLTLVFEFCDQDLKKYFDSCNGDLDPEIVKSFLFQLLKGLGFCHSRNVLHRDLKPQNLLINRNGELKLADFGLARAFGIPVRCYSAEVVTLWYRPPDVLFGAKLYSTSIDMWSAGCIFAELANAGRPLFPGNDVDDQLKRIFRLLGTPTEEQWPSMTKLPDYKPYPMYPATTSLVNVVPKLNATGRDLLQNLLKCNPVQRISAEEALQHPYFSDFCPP
row,Activity,SMILES
1,< 30%,Cn1cnc(NCc2ccncc2)c1-c1nnc(Nc2ccc(Br)cc2)o1
2,< 30%,Cn1cnc(NCc2ccncc2)c1-c1nnc(Nc2ccc(Oc3ccccc3)cc2)o1
3,< 30%,COc1ccccc1Nc1nnc(-c2c(NCc3ccncc3)ncn2C)o1
4,< 30%,Cc1cccc(Nc2nnc(-c3c(NCc4ccncc4)ncn3C)o2)c1

# Target: Vascular endothelial growth factor receptor 1 (Homo sapiens, UniProt P17948)
# Experiment: Inhibition of VEGFR1 by enzymatic assay
row,IC50,SMILES
1,1470 nM,Cn1cnc(NCc2ccncc2)c1-c1nnc(Nc2ccc(Br)cc2)o1
2,> 10000 nM,Cn1cnc(NCc2ccncc2)c1-c1nnc(Nc2ccc(Oc3ccccc3)cc2)o1
3,1260 nM,Cc1cccc(Nc2nnc(-c3c(NCc4ccncc4)ncn3C)o2)c1

# Target: Vascular endothelial growth factor receptor 2 (Homo sapiens, UniProt P35968)
# Experiment: Inhibition of VEGFR2 by enzymatic assay
# Vascular endothelial growth factor receptor 2, sequence (P35968 whole entry): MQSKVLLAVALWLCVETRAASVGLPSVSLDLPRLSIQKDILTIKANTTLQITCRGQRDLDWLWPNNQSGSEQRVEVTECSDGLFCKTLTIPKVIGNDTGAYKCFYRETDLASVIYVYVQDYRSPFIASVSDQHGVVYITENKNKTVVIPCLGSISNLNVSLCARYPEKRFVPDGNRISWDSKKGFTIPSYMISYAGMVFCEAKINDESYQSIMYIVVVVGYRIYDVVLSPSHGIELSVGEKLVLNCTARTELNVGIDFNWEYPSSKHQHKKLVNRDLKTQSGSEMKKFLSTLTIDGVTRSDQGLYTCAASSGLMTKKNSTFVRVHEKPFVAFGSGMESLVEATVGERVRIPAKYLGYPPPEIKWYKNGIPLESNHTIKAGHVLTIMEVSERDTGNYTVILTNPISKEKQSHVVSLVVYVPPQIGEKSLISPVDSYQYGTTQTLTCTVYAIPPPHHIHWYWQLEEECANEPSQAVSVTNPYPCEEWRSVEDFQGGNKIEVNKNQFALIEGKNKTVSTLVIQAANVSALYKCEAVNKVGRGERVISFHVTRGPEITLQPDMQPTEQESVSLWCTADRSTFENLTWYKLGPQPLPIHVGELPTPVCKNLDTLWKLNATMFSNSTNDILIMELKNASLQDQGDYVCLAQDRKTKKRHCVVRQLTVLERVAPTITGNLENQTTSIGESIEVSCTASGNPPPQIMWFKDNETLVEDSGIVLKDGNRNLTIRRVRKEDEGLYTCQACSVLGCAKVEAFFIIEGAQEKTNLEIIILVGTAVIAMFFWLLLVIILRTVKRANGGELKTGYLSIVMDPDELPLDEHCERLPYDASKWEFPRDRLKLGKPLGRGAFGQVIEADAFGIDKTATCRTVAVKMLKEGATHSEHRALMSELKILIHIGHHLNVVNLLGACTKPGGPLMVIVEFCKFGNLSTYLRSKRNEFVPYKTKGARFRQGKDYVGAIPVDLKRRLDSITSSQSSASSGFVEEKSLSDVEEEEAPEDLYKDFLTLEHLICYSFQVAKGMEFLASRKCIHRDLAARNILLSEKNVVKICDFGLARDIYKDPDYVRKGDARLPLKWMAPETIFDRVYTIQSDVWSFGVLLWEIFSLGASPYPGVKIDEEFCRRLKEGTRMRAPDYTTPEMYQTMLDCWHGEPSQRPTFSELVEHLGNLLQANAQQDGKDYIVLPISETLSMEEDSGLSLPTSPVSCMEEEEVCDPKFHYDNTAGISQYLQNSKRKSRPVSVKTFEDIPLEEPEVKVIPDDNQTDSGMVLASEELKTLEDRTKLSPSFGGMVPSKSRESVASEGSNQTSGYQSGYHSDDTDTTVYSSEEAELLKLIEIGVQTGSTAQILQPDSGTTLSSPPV
row,IC50,SMILES
1,730 nM,Cn1cnc(NCc2ccncc2)c1-c1nnc(Nc2ccc(Br)cc2)o1
2,> 10000 nM,Cn1cnc(NCc2ccncc2)c1-c1nnc(Nc2ccc(Oc3ccccc3)cc2)o1
3,710 nM,Cc1cccc(Nc2nnc(-c3c(NCc4ccncc4)ncn3C)o2)c1

# Target: Hepatocyte growth factor receptor (Homo sapiens) (UniProt P08581)
# Experiment: Percent inhibition against c-Met at 10 uM by HTRF method
# Parameters: scale not given: the % may be the effect or the level left
row,Activity,SMILES
1,< 30%,Cn1cnc(NCc2ccncc2)c1-c1nnc(Nc2ccc(Br)cc2)o1
2,< 30%,Cn1cnc(NCc2ccncc2)c1-c1nnc(Nc2ccc(Oc3ccccc3)cc2)o1
3,< 30%,COc1ccccc1Nc1nnc(-c2c(NCc3ccncc3)ncn2C)o1
4,< 30%,Cc1cccc(Nc2nnc(-c3c(NCc4ccncc4)ncn3C)o2)c1

# Target: Receptor tyrosine-protein kinase erbB-2 (Homo sapiens) (UniProt P04626)
# Experiment: […] against ErbB2 at 10 uM by HTRF method
row,Activity,SMILES
1,< 30%,Cn1cnc(NCc2ccncc2)c1-c1nnc(Nc2ccc(Br)cc2)o1
2,< 30%,Cn1cnc(NCc2ccncc2)c1-c1nnc(Nc2ccc(Oc3ccccc3)cc2)o1
3,< 30%,COc1ccccc1Nc1nnc(-c2c(NCc3ccncc3)ncn2C)o1
4,< 30%,Cc1cccc(Nc2nnc(-c3c(NCc4ccncc4)ncn3C)o2)c1
